Consider 15 compounds from patent US8232288B2, “Substituted benzimidazoles, benzothiazoles and benzoxazoles” (Gruenenthal GmbH, priority 2009, dated 2012).

One may read the inhibition as the drop in the measured response relative to a control, in per cent.

In assay [1] the target is T1, human B1R receptor (hB1R) (Homo sapiens, UniProt P46663).
T1 construct: expressed in transfected cells; host or cells: CHO K1 cells
T1 sequence (P46663 1-353): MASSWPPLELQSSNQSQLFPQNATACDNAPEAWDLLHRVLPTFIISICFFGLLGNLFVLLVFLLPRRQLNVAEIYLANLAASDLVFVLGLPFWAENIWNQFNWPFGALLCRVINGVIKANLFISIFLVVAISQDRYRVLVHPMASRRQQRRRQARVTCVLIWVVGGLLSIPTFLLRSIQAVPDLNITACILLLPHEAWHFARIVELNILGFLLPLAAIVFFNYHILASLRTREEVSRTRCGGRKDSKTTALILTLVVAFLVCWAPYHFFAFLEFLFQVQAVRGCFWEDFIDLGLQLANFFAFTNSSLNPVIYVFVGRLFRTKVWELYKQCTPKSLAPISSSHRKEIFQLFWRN
Kind of assay: Functional investigation on the bradykinin receptor 1 (B1R), FLIPR Ca2+ assay, hB1R cells. It is filed as cell-based. In a few lines: (§1)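 Stably transfected CHO K1 cells expressing human or rat B1R were loaded with Fluo-4, and Ca2+ fluorescence was read on a FLIPR. Compound (10 μM) was added first to measure activation. After 10–20 min, agonist at EC80 was added (Lys-Des-Arg9-bradykinin for hB1R, Des-Arg9-bradykinin for rB1R) to give % inhibition. IC50 values came from concentration series.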

The target in assay [2] is T2, B1R receptor of the rat (rB1R) (Rattus norvegicus, UniProt P97583).
T2 construct: expressed in transfected cells; host or cells: CHO K1 cells
T2 sequence (P97583 1-337): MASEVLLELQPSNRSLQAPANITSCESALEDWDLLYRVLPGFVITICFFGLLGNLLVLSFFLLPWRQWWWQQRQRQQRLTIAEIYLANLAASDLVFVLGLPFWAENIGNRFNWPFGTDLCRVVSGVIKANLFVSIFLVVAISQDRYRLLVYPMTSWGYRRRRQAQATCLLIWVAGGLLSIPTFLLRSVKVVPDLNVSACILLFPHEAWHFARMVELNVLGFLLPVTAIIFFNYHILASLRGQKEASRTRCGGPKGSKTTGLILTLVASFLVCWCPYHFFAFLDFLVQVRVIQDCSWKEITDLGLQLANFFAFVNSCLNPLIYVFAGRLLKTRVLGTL
Kind of assay: Functional investigation on the bradykinin receptor 1 (B1R), FLIPR Ca2+ assay, rB1R cells. The assay is classed as cell-based. In a few lines:
as §1

SMILES strings stand for the structures.

As for `COc1cc(C)c(S(=O)(=O)N(C)C(C)c2nc3cccc(C(=O)N4CCC5(CCN(Cc6c(F)cccc6F)CC5)CC4)c3[nH]2)c(C)c1` (stereo not drawn) [I_CC-29, N-[1-[7-[9-[(2,6-Difluoro-phenyl)-methyl]-3,9-diazaspiro[5.5]undecane-3-carbonyl]-1H-benzoimidazol-2-yl]-ethyl]-4-methoxy-N,2,6-trimethyl-benzenesulfonic acid amide], the inhibition at 10 µM came to 84% in assay [1] and 94% in assay [2].

Take `COc1cc(C)c(S(=O)(=O)N(C)C(C)c2nc3cccc(C(=O)N4CCC5(CCN(Cc6ccc(F)c(F)c6)CC5)CC4)c3[nH]2)c(C)c1` (stereo not drawn) [I_CC-30, N-[1-[7-[9-[(3,4-Difluoro-phenyl)-methyl]-3,9-diazaspiro[5.5]undecane-3-carbonyl]-1H-benzoimidazol-2-yl]-ethyl]-4-methoxy-N,2,6-trimethyl-benzenesulfonic acid amide]: the inhibition at 10 µM in assay [1] is 63%; in assay [2] it was 99%.

For the compound `COc1cc(C)c(S(=O)(=O)N(C)C(C)c2nc3cccc(C(=O)N4CCC5(CCN(Cc6cc(F)ccc6F)CC5)CC4)c3[nH]2)c(C)c1` (stereo not drawn) [I_CC-31, N-[1-[7-[9-[(2,5-Difluoro-phenyl)-methyl]-3,9-diazaspiro[5.5]undecane-3-carbonyl]-1H-benzoimidazol-2-yl]-ethyl]-4-methoxy-N,2,6-trimethyl-benzenesulfonic acid amide], the inhibition at 10 µM in assay [1] worked out at 63%; in assay [2], 104%.

As for `COc1cc(C)c(S(=O)(=O)N(C)C(C)c2nc3cccc(C(=O)N4CCC5(CCN(Cc6ccc(F)cc6F)CC5)CC4)c3[nH]2)c(C)c1` (stereo not drawn) [I_CC-32, N-[1-[7-[9-[(2,4-Difluoro-phenyl)-methyl]-3,9-diazaspiro[5.5]undecane-3-carbonyl]-1H-benzoimidazol-2-yl]-ethyl]-4-methoxy-N,2,6-trimethyl-benzenesulfonic acid amide], the values for the inhibition at 10 µM in assay [1] and in assay [2] were 71% and 99%, respectively.

Take `COc1cc(C)c(S(=O)(=O)N(C)C(C)c2nc3cccc(C(=O)N4CCC5(CCN(Cc6ccc(OC)c(F)c6)CC5)CC4)c3[nH]2)c(C)c1` (stereo not drawn) [I_CC-33, N-[1-[7-[9-[(3-Fluoro-4-methoxy-phenyl)-methyl]-3,9-diazaspiro[5.5]undecane-3-carbonyl]-1H-benzoimidazol-2-yl]-ethyl]-4-methoxy-N,2,6-trimethyl-benzenesulfonic acid amide]: the inhibition at 10 µM was 80% in assay [1] and 89% in assay [2].

Take `COc1cc(C)c(S(=O)(=O)N(C)C(C)c2nc3cccc(C(=O)N4CCC5(CCN(Cc6c(F)cccc6OC)CC5)CC4)c3[nH]2)c(C)c1` (stereo not drawn) [I_CC-34, N-[1-[7-[9-[(2-Fluoro-6-methoxy-phenyl)-methyl]-3,9-diazaspiro[5.5]undecane-3-carbonyl]-1H-benzoimidazol-2-yl]-ethyl]-4-methoxy-N,2,6-trimethyl-benzenesulfonic acid amide]: the inhibition at 10 µM in assay [1] came to 91%; in assay [2], 86%.

Take `COc1cc(C)c(S(=O)(=O)N(C)C(C)c2nc3cccc(C(=O)N4CCC5(CCN(Cc6[nH]cnc6C)CC5)CC4)c3[nH]2)c(C)c1` (stereo not drawn) [I_CC-35, 4-Methoxy-N,2,6-trimethyl-N-[1-[7-[9-[(5-methyl-3H-imidazol-4-yl)-methyl]-3,9-diazaspiro[5.5]undecane-3-carbonyl]-1H-benzoimidazol-2-yl]-ethyl]-benzenesulfonic acid amide]: the inhibition at 10 µM in assay [1] amounted to 68%; in assay [2], 104%.

With `COc1cc(C)c(S(=O)(=O)N(C)C(C)c2nc3cccc(C(=O)N4CCC5(CCN(Cc6cncn6C)CC5)CC4)c3[nH]2)c(C)c1` (stereo not drawn) [I_CC-36, 4-Methoxy-N,2,6-trimethyl-N-[1-[7-[9-[(3-methyl-3H-imidazol-4-yl)-methyl]-3,9-diazaspiro[5.5]undecane-3-carbonyl]-1H-benzoimidazol-2-yl]-ethyl]-benzenesulfonic acid amide], the figures for the inhibition at 10 µM in assay [1] and in assay [2] were 82% and 100%, respectively.

For the compound `COc1cc(C)c(S(=O)(=O)N(C)C(C)c2nc3cccc(C(=O)N4CCC5(CCN(Cc6c[nH]c(C)n6)CC5)CC4)c3[nH]2)c(C)c1` (stereo not drawn) [I_CC-37, 4-Methoxy-N,2,6-trimethyl-N-[1-[7-[9-[(2-methyl-1H-imidazol-4-yl)-methyl]-3,9-diazaspiro[5.5]undecane-3-carbonyl]-1H-benzoimidazol-2-yl]-ethyl]-benzenesulfonic acid amide], the values for the inhibition at 10 µM in assay [1] and in assay [2] were 80% and 101%, respectively.

On to `COc1cc(C)c(S(=O)(=O)N(C)C(C)c2nc3cccc(C(=O)N4CCC5(CCN(Cc6csnn6)CC5)CC4)c3[nH]2)c(C)c1` (stereo not drawn) [I_CC-38, 4-Methoxy-N,2,6-trimethyl-N-[1-[7-[9-([1,2,3]thiadiazol-4-yl-methyl)-3,9-diazaspiro[5.5]undecane-3-carbonyl]-1H-benzoimidazol-2-yl]-ethyl]-benzenesulfonic acid amide], for which the inhibition at 10 µM in assay [1] stood at 85%; in assay [2] it was 97%.

With `COc1cc(C)c(S(=O)(=O)N(C)C(C)c2nc3cccc(C(=O)N4CCC5(CCN(Cc6ccc(F)cc6Cl)CC5)CC4)c3[nH]2)c(C)c1` (stereo not drawn) [I_CC-39, N-[1-[7-[9-[(2-Chloro-4-fluoro-phenyl)-methyl]-3,9-diazaspiro[5.5]undecane-3-carbonyl]-1H-benzoimidazol-2-yl]-ethyl]-4-methoxy-N,2,6-trimethyl-benzenesulfonic acid amide], the inhibition at 10 µM in assay [1] amounted to 49%; in assay [2] it was 95%.

For the compound `COc1cc(C)c(S(=O)(=O)N(C)C(C)c2nc3cccc(C(=O)N4CCC5(CCN(Cc6c(F)cccc6Cl)CC5)CC4)c3[nH]2)c(C)c1` (stereo not drawn) [I_CC-40, N-[1-[7-[9-[(2-Chloro-6-fluoro-phenyl)-methyl]-3,9-diazaspiro[5.5]undecane-3-carbonyl]-1H-benzoimidazol-2-yl]-ethyl]-4-methoxy-N,2,6-trimethyl-benzenesulfonic acid amide], the inhibition at 10 µM was found to be 49% in assay [1] and 99% in assay [2].

For `COc1cc(C)c(S(=O)(=O)N(C)C(C)c2nc3cccc(C(=O)N4CCC5(CCN(Cc6cnn(C)c6C)CC5)CC4)c3[nH]2)c(C)c1` (stereo not drawn) [I_CC-41, N-[1-[7-[9-[(1,5-Dimethyl-1H-pyrazol-4-yl)-methyl]-3,9-diazaspiro[5.5]undecane-3-carbonyl]-1H-benzoimidazol-2-yl]-ethyl]-4-methoxy-N,2,6-trimethyl-benzenesulfonic acid amide], the inhibition at 10 µM in assay [1] is 83%; in assay [2], 98%.

As to `COc1cc(C)c(S(=O)(=O)N(C)C(C)c2nc3cccc(C(=O)N4CCC5(CCN(Cc6c(C)noc6C)CC5)CC4)c3[nH]2)c(C)c1` (stereo not drawn) [I_CC-42, N-[1-[7-[9-[(3,5-Dimethyl-isoxazol-4-yl)-methyl]-3,9-diazaspiro[5.5]undecane-3-carbonyl]-1H-benzoimidazol-2-yl]-ethyl]-4-methoxy-N,2,6-trimethyl-benzenesulfonic acid amide], the inhibition at 10 µM in assay [1] stood at 76%; in assay [2] it was 90%.

Consider `COc1cc(C)c(S(=O)(=O)N(C)C(C)c2nc3cccc(C(=O)N4CCC5(CCN(Cc6ccc(C#N)cc6)CC5)CC4)c3[nH]2)c(C)c1` (stereo not drawn) [I_CC-43, N-[1-[7-[9-[(4-Cyano-phenyl)-methyl]-3,9-diazaspiro[5.5]undecane-3-carbonyl]-1H-benzoimidazol-2-yl]-ethyl]-4-methoxy-N,2,6-trimethyl-benzenesulfonic acid amide], for which the values for the inhibition at 10 µM in assay [1] and in assay [2] were 85% and 98%, respectively.
